Here are results for 22 molecules from patent publication US20090156646A1, “PYRIDYLPHENOL COMPOUND AND USE THEREOF” (TAKEDA PHARMACEUTICAL COMPANY LIMITED, priority 2005, published 2009).

As usually defined, the melting point is the temperature of the solid-liquid transition.

Where a name gives a salt, the structure may show the parent alone.

In turn, `CN(C(=O)CN)c1cccc(-c2cc(-c3ccccc3O)nc(NC(=O)c3cccs3)c2C#N)c1` (as salt: hydrochloride) [Example 41, N-[3-cyano-4-{3-[glycyl(methyl)amino]phenyl}-6-(2-hydroxyphenyl)pyridin-2-yl]thiophene-2-carboxamide dihydrochloride] showed a melting point of 198 to 205 °C.
With `N#Cc1c(-c2cccc(N)c2)cc(-c2ccccc2O)nc1NC(=O)c1ccccc1` [Example 28, N-[4-(3-aminophenyl)-3-cyano-6-(2-hydroxyphenyl)pyridin-2-yl]benzamide] the figure was 259 to 261 °C; with `N#Cc1c(-c2ccc(N)cc2)cc(-c2ccccc2O)nc1NC(=O)c1cccs1` [Example 48, N-[4-(4-aminophenyl)-3-cyano-6-(2-hydroxyphenyl)pyridin-2-yl]thiophene-2-carboxamide], 292 to 293 °C; with `COc1ccc(-c2cc(-c3cccc(NC(=O)CCN)c3)c(C#N)c(NC(=O)c3ccccc3)n2)c(O)c1` (as salt: trifluoroacetate) [Example 50, N-{4-[3-(β-alanylamino)phenyl]-3-cyano-6-(2-hydroxy-4-methoxyphenyl)pyridin-2-yl}benzamide trifluoroacetate], 164 to 170 °C.
Turning to `N#Cc1c(-c2cccc(NC(=O)CCN)c2)cc(-c2ccc(Cl)cc2O)nc1NC(=O)c1ccccc1` (as salt: trifluoroacetate) [Example 51, N-{4-[3-(β-alanylamino)phenyl]-6-(4-chloro-2-hydroxyphenyl)-3-cyanopyridin-2-yl}benzamide trifluoroacetate], the melting point lay in the range of 160 to 167 °C.
On to `Cl.N#Cc1c(-c2cccc(NC(=O)[C@@H]3CCCN3)c2)cc(-c2ccccc2O)nc1NC(=O)c1cccs1`, for which the melting point is 210 to 218 °C.
With `CNc1cccc(-c2cc(-c3ccccc3O)nc(NC(=O)c3cccs3)c2C#N)c1` [Example 39, N-{3-cyano-6-(2-hydroxyphenyl)-4-[3-(methylamino)phenyl]pyridin-2-yl}thiophene-2-carboxamide] the figure was 227 to 230 °C; with `Cl.N#Cc1c(-c2cccc(NC(=O)[C@H]3CCCN3)c2)cc(-c2ccccc2O)nc1NC(=O)c1cccs1`, 213 to 218 °C.
For the molecule `Cl.N#Cc1c(-c2ccc(F)c(N)c2)cc(-c2ccc(F)cc2O)nc1NC(=O)c1ccco1`, the melting point fell in the range of 284 to 285 °C.
`N#Cc1c(-c2cccc(NC(=O)CCN)c2)cc(-c2cc(Cl)ccc2O)nc1NC(=O)c1cccs1` (as salt: trifluoroacetate) [Example 46, N-{4-[3-(β-alanylamino)phenyl]-6-(5-chloro-2-hydroxyphenyl)-3-cyanopyridin-2-yl}thiophene-2-carboxamide trifluoroacetate] came in with a melting point of 197 to 204 °C.
On to `Cl.N#Cc1c(-c2cccc(C(=O)NC3CCCNC3)c2)cc(-c2ccccc2O)nc1NC(=O)c1cccs1` (stereo not shown), for which the melting point is 232 to 233 °C.
In turn, `N#Cc1c(-c2cccc(NC(=O)CN)c2)cc(-c2ccccc2O)nc1NC(=O)c1cccs1` (as salt: hydrochloride) [Example 12, N-[3-cyano-4-[3-(glycylamino)phenyl]-6-(2-hydroxyphenyl)pyridin-2-yl]thiophene-2-carboxamide dihydrochloride] had a melting point of 210 to 217 °C.
`COc1ccccc1C(=O)Nc1nc(-c2ccc(Cl)cc2O)cc(-c2cccc(NC(=O)CCN)c2)c1C#N.Cl` displayed a melting point of 233 to 238 °C.
`Cl.N#Cc1c(-c2ccc(C(=O)NCCN)cc2)cc(-c2ccccc2O)nc1NC(=O)c1cccs1`: the melting point was in the range of 202 to 208 °C.
Molecule `Cl.N#Cc1c(-c2cccc(NC(=O)CCN)c2)cc(-c2ccc(Cl)cc2O)nc1NC(=O)c1ccccc1OC(F)(F)F` returned a melting point of 218 to 223 °C.
Regarding `N#Cc1c(-c2cccc(C(=O)NCCO)c2)cc(-c2ccccc2O)nc1NC(=O)c1cccs1` [Example 35, N-[3-cyano-4-(3-{[(2-hydroxyethyl)amino]carbonyl}phenyl)-6-(2-hydroxyphenyl)pyridin-2-yl]thiophene-2-carboxamide], the melting point was in the range of 218 to 219 °C.
As to `NCCC(=O)Nc1cccc(-c2cc(NC(=O)c3cccs3)nc(-c3ccccc3O)c2)c1` (as salt: hydrochloride) [Example 27, N-{4-[3-(β-alanylamino)phenyl]-6-(2-hydroxyphenyl)pyridin-2-yl}thiophene-2-carboxamide dihydrochloride], the melting point lay within 214 to 220 °C.
Molecule `CC(=O)NCCC(=O)Nc1cccc(-c2cc(-c3ccc(Cl)cc3O)nc(NC(=O)c3cccs3)c2C#N)c1` [Example 59, N-[4-{3-[(N-acetyl-β-alanyl)amino]phenyl}-6-(4-chloro-2-hydroxyphenyl)-3-cyanopyridin-2-yl]thiophene-2-carboxamide] registered a melting point of 209 to 210 °C.
In turn, `CC(C)(C)OC(=O)NCCC(=O)Nc1cccc(-c2cc(-c3ccccc3O)nc(NC(=O)c3ccccc3)c2C#N)c1` [Example 30, tert-butyl[3-({3-[2-(benzoylamino)-3-cyano-6-(2-hydroxyphenyl)pyridin-4-yl]phenyl}amino)-3-oxopropyl]carbamate] came in with a melting point of 220 to 221 °C.
In the case of `Cl.NCCC(=O)Nc1cccc(-c2cc(-c3ccccc3O)nc(NC(=O)c3ccccc3)c2C(=O)O)c1`, the melting point was in the range of 250 to 253 °C.
`N#Cc1c(-c2cccc(NC(=O)[C@H](N)Cc3cnc[nH]3)c2)cc(-c2ccc(Cl)cc2O)nc1NC(=O)c1ccco1` (as salt: hydrochloride) [Example 253, N-{3-[6-(4-chloro-2-hydroxyphenyl)-3-cyano-2-(2-furoylamino)pyridin-4-yl]phenyl}-D-histidinamide dihydrochloride] yielded a melting point of 200 to 206 °C.
Molecule `COc1ccc(O)c(-c2cc(-c3cccc(NC(=O)CCN)c3)c(C#N)c(NC(=O)c3cccs3)n2)c1.Cl` gave a melting point of 197 to 201 °C.
